According to PubChem BioAssay AID1963426 (Molecular Pharmacology Branch, DTP, NCI, 2024):

Tested on: 186277-243-T-J2-PDC complex spheroid growth, % test/control
Experiment: Anticancer human tumor 186277-243-T-J2-PDC patient-derived colon adenocarcinoma cell line growth inhibition [Asc]
Details: for IC50: curve of first compound; for viability, T/C: stronger effect = lower value
How it was run: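 Spheroid model: tumor line + HUVEC + hMSC. Single agents and combinations; top conc. at/near clinical Cmax (10 microM if undetermined), half-log dilutions. DMSO stocks at 800-fold test concentration.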

[1] = second compound 0.1 µM, first compound 0.00316 µM
[2] = second compound 0.1 µM, first compound 0.01 µM
[3] = second compound 0.1 µM, first compound 0.0316 µM
[4] = second compound 0.1 µM, first compound 0.1 µM
[5] = second compound 0.1 µM, first compound 0.316 µM
[6] = second compound 0.1 µM, first compound 1 µM
[7] = second compound 0.316 µM, first compound 0.00316 µM
[8] = second compound 0.316 µM, first compound 0.01 µM
[9] = second compound 0.316 µM, first compound 0.0316 µM
[10] = second compound 0.316 µM, first compound 0.1 µM
[11] = second compound 0.316 µM, first compound 0.316 µM
[12] = second compound 0.316 µM, first compound 1 µM
[13] = second compound 1 µM, first compound 0.00316 µM
[14] = second compound 1 µM, first compound 0.01 µM
[15] = second compound 1 µM, first compound 0.0316 µM
[16] = second compound 1 µM, first compound 0.1 µM
[17] = second compound 1 µM, first compound 0.316 µM
[18] = second compound 1 µM, first compound 1 µM
[19] = second compound 3.16 µM, first compound 0.00316 µM
[20] = second compound 3.16 µM, first compound 0.01 µM
[21] = second compound 3.16 µM, first compound 0.0316 µM
[22] = second compound 3.16 µM, first compound 0.1 µM
[23] = second compound 3.16 µM, first compound 0.316 µM
[24] = second compound 3.16 µM, first compound 1 µM
[25] = second compound 10 µM, first compound 0.00316 µM
[26] = second compound 10 µM, first compound 0.01 µM
[27] = second compound 10 µM, first compound 0.0316 µM
[28] = second compound 10 µM, first compound 0.1 µM
[29] = second compound 10 µM, first compound 0.316 µM
[30] = second compound 10 µM, first compound 1 µM
[31] = second compound 0.1 µM, first compound 0.000316 µM
[32] = second compound 0.1 µM, first compound 0.001 µM
[33] = second compound 0.316 µM, first compound 0.000316 µM
[34] = second compound 0.316 µM, first compound 0.001 µM
[35] = second compound 1 µM, first compound 0.000316 µM
[36] = second compound 1 µM, first compound 0.001 µM
[37] = second compound 3.16 µM, first compound 0.000316 µM
[38] = second compound 3.16 µM, first compound 0.001 µM
[39] = second compound 10 µM, first compound 0.000316 µM
[40] = second compound 10 µM, first compound 0.001 µM
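Also: spheroids exposed to agents for 7 days.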
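For viability, T/C in this document: 100% = DMSO vehicle control wells.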

CCN1CCN(Cc2ccc(Nc3ncc(F)c(-c4cc(F)c5nc(C)n(C(C)C)c5c4)n3)nc2)CC1 + Cc1c(S(C)(=O)=O)c(-c2cc(F)cc(N3CCN(c4ccc(NS(=O)(=O)c5ccc(NC(CCN6CCC(C(=O)OCCCP(=O)(O)O)CC6)CSc6ccccc6)c(S(=O)(=O)C(F)(F)F)c5)cc4)CC3)c2)c(-c2ccc(Cl)cc2)n1C(C)C
IC50 (second compound 0.1 µM): > 1000 nM | IC50 (second compound 0.316 µM): > 1000 nM | IC50 (second compound 1 µM): > 1000 nM | IC50 (second compound 3.16 µM): 788 nM | IC50 (second compound 10 µM): 738 nM | viability, T/C [1]: 107% | viability, T/C [2]: 99.1% | viability, T/C [3]: 103% | viability, T/C [4]: 125% | viability, T/C [5]: 123% | viability, T/C [6]: 75.3% | viability, T/C [7]: 95.2% | viability, T/C [8]: 94.1% | viability, T/C [9]: 103% | viability, T/C [10]: 115% | viability, T/C [11]: 114% | viability, T/C [12]: 67.7% | viability, T/C [13]: 86.6% | viability, T/C [14]: 99.6% | viability, T/C [15]: 102% | viability, T/C [16]: 120% | viability, T/C [17]: 101% | viability, T/C [18]: 56.7% | viability, T/C [19]: 96.4% | viability, T/C [20]: 89.8% | viability, T/C [21]: 101% | viability, T/C [22]: 113% | viability, T/C [23]: 89.8% | viability, T/C [24]: 39.6% | viability, T/C [25]: 91.3% | viability, T/C [26]: 84.3% | viability, T/C [27]: 100% | viability, T/C [28]: 110% | viability, T/C [29]: 93.5% | viability, T/C [30]: 34.2%

Cn1ncnc1[C@H]1c2n[nH]c(=O)c3cc(F)cc(c23)N[C@@H]1c1ccc(F)cc1 + Cc1c(S(C)(=O)=O)c(-c2cc(F)cc(N3CCN(c4ccc(NS(=O)(=O)c5ccc(NC(CCN6CCC(C(=O)OCCCP(=O)(O)O)CC6)CSc6ccccc6)c(S(=O)(=O)C(F)(F)F)c5)cc4)CC3)c2)c(-c2ccc(Cl)cc2)n1C(C)C
IC50 (second compound 0.1 µM): > 100 nM | IC50 (second compound 0.316 µM): > 100 nM | IC50 (second compound 1 µM): > 100 nM | IC50 (second compound 3.16 µM): > 100 nM | IC50 (second compound 10 µM): 75 nM | viability, T/C [31]: 98.4% | viability, T/C [32]: 85.5% | viability, T/C [1]: 101% | viability, T/C [2]: 101% | viability, T/C [3]: 108% | viability, T/C [4]: 99.1% | viability, T/C [33]: 111% | viability, T/C [34]: 95.5% | viability, T/C [7]: 114% | viability, T/C [8]: 111% | viability, T/C [9]: 98.3% | viability, T/C [10]: 86.8% | viability, T/C [35]: 100% | viability, T/C [36]: 103% | viability, T/C [13]: 103% | viability, T/C [14]: 91.5% | viability, T/C [15]: 70% | viability, T/C [16]: 63.8% | viability, T/C [37]: 106% | viability, T/C [38]: 99% | viability, T/C [19]: 113% | viability, T/C [20]: 97.9% | viability, T/C [21]: 66% | viability, T/C [22]: 56.1% | viability, T/C [39]: 95.4% | viability, T/C [40]: 95.9% | viability, T/C [25]: 116% | viability, T/C [26]: 96.1% | viability, T/C [27]: 70.5% | viability, T/C [28]: 43.2%

NC(=O)C(=Cn1cnc(-c2cc(C(F)(F)F)cc(C(F)(F)F)c2)n1)c1cncnc1 + Cc1c(S(C)(=O)=O)c(-c2cc(F)cc(N3CCN(c4ccc(NS(=O)(=O)c5ccc(NC(CCN6CCC(C(=O)OCCCP(=O)(O)O)CC6)CSc6ccccc6)c(S(=O)(=O)C(F)(F)F)c5)cc4)CC3)c2)c(-c2ccc(Cl)cc2)n1C(C)C
IC50 (second compound 0.1 µM): 108 nM | IC50 (second compound 0.316 µM): 84.2 nM | IC50 (second compound 1 µM): 65.7 nM | IC50 (second compound 3.16 µM): 56.8 nM | IC50 (second compound 10 µM): 55.4 nM | viability, T/C (second compound 0.1 µM, first compound 0.000949 µM): 109% | viability, T/C (second compound 0.1 µM, first compound 0.003 µM): 99.3% | viability, T/C (second compound 0.1 µM, first compound 0.00949 µM): 113% | viability, T/C (second compound 0.1 µM, first compound 0.03 µM): 90.8% | viability, T/C (second compound 0.1 µM, first compound 0.0949 µM): 56.2% | viability, T/C (second compound 0.1 µM, first compound 0.3 µM): 6.16% | viability, T/C (second compound 0.316 µM, first compound 0.000949 µM): 96.3% | viability, T/C (second compound 0.316 µM, first compound 0.003 µM): 99% | viability, T/C (second compound 0.316 µM, first compound 0.00949 µM): 89.5% | viability, T/C (second compound 0.316 µM, first compound 0.03 µM): 94.9% | viability, T/C (second compound 0.316 µM, first compound 0.0949 µM): 44.8% | viability, T/C (second compound 0.316 µM, first compound 0.3 µM): 4.07% | viability, T/C (second compound 1 µM, first compound 0.000949 µM): 96.8% | viability, T/C (second compound 1 µM, first compound 0.003 µM): 101% | viability, T/C (second compound 1 µM, first compound 0.00949 µM): 101% | viability, T/C (second compound 1 µM, first compound 0.03 µM): 98.2% | viability, T/C (second compound 1 µM, first compound 0.0949 µM): 27.4% | viability, T/C (second compound 1 µM, first compound 0.3 µM): 1.75% | viability, T/C (second compound 3.16 µM, first compound 0.000949 µM): 110% | viability, T/C (second compound 3.16 µM, first compound 0.003 µM): 99.4% | viability, T/C (second compound 3.16 µM, first compound 0.00949 µM): 101% | viability, T/C (second compound 3.16 µM, first compound 0.03 µM): 95.8% | viability, T/C (second compound 3.16 µM, first compound 0.0949 µM): 13.2% | viability, T/C (second compound 3.16 µM, first compound 0.3 µM): 0.68% | viability, T/C (second compound 10 µM, first compound 0.000949 µM): 92% | viability, T/C (second compound 10 µM, first compound 0.003 µM): 92.4% | viability, T/C (second compound 10 µM, first compound 0.00949 µM): 92.5% | viability, T/C (second compound 10 µM, first compound 0.03 µM): 91.7% | viability, T/C (second compound 10 µM, first compound 0.0949 µM): 13.4% | viability, T/C (second compound 10 µM, first compound 0.3 µM): 0.55%

NC1CCC(NC2CC2c2ccccc2)CC1 (stereo not given) + Cc1c(S(C)(=O)=O)c(-c2cc(F)cc(N3CCN(c4ccc(NS(=O)(=O)c5ccc(NC(CCN6CCC(C(=O)OCCCP(=O)(O)O)CC6)CSc6ccccc6)c(S(=O)(=O)C(F)(F)F)c5)cc4)CC3)c2)c(-c2ccc(Cl)cc2)n1C(C)C
IC50 (second compound 0.1 µM): > 100 nM | IC50 (second compound 0.316 µM): > 100 nM | IC50 (second compound 1 µM): > 100 nM | IC50 (second compound 3.16 µM): > 100 nM | IC50 (second compound 10 µM): > 100 nM | viability, T/C [31]: 102% | viability, T/C [32]: 102% | viability, T/C [1]: 96.9% | viability, T/C [2]: 94.8% | viability, T/C [3]: 94.4% | viability, T/C [4]: 91.3% | viability, T/C [33]: 124% | viability, T/C [34]: 94.3% | viability, T/C [7]: 111% | viability, T/C [8]: 104% | viability, T/C [9]: 89.9% | viability, T/C [10]: 78.1% | viability, T/C [35]: 99.8% | viability, T/C [36]: 103% | viability, T/C [13]: 113% | viability, T/C [14]: 93% | viability, T/C [15]: 96.7% | viability, T/C [16]: 89% | viability, T/C [37]: 103% | viability, T/C [38]: 104% | viability, T/C [19]: 100% | viability, T/C [20]: 92.1% | viability, T/C [21]: 95.6% | viability, T/C [22]: 91.3% | viability, T/C [39]: 98.3% | viability, T/C [40]: 101% | viability, T/C [25]: 97.8% | viability, T/C [26]: 92.8% | viability, T/C [27]: 97.8% | viability, T/C [28]: 98%

O=C(c1ccc(F)c(F)c1Nc1ccc(I)cc1F)N1CC(O)([C@@H]2CCCCN2)C1 + Cc1c(S(C)(=O)=O)c(-c2cc(F)cc(N3CCN(c4ccc(NS(=O)(=O)c5ccc(NC(CCN6CCC(C(=O)OCCCP(=O)(O)O)CC6)CSc6ccccc6)c(S(=O)(=O)C(F)(F)F)c5)cc4)CC3)c2)c(-c2ccc(Cl)cc2)n1C(C)C
IC50 (second compound 0.1 µM): 93.4 nM | IC50 (second compound 0.316 µM): 73.3 nM | IC50 (second compound 1 µM): 65.9 nM | IC50 (second compound 3.16 µM): 57.8 nM | IC50 (second compound 10 µM): 52 nM | viability, T/C [1]: 95.5% | viability, T/C [2]: 92.4% | viability, T/C [3]: 107% | viability, T/C [4]: 47% | viability, T/C [5]: 9.22% | viability, T/C [6]: 4.73% | viability, T/C [7]: 101% | viability, T/C [8]: 97.8% | viability, T/C [9]: 88.8% | viability, T/C [10]: 35.7% | viability, T/C [11]: 5.96% | viability, T/C [12]: 2.79% | viability, T/C [13]: 102% | viability, T/C [14]: 99.2% | viability, T/C [15]: 103% | viability, T/C [16]: 20.7% | viability, T/C [17]: 2.79% | viability, T/C [18]: 1.09% | viability, T/C [19]: 93.5% | viability, T/C [20]: 93.1% | viability, T/C [21]: 94.7% | viability, T/C [22]: 10.2% | viability, T/C [23]: 1.13% | viability, T/C [24]: 0.48% | viability, T/C [25]: 88.1% | viability, T/C [26]: 93.5% | viability, T/C [27]: 82% | viability, T/C [28]: 7.98% | viability, T/C [29]: 4.2% | viability, T/C [30]: 0.52%
